Converted amounts (≈) assume the structure as drawn. One block for each compound: values may come before it.
Tests used:
[1] = Effect of pH on water solubility (saturated concentration by HPLC)
Procedure: (§3) Subsequently, the pH of the remaining sample solution was adjusted using 1.0 N or 0.05 N aqueous sodium hydroxide solution, and in the case all of the sample had dissolved in the solution, sample was further added followed by stirring for 15 hours at room temperature (22° C.±2° C.) so that some of the sample was left undissolved and 1 mL of supernatant was similarly collected. Supernatant was repeatedly collected while adjusting the pH as necessary to obtain samples.
(§4) The resulting samples were filtered with a membrane filter having a pore size of 22 μm followed by subjecting the resulting filtrate to high-performance liquid chromatography (HPLC).
(§5) HPLC analyses were carried out using the LC Solution and PDA detector (CBM-20A) manufactured by Shimadzu Corp. and the Shodex RSpak DM-614 column at a column temperature of 40° C. and flow rate of 0.8 ml/min while using 0.02% H3PO4 for the mobile phase.
(§6) The concentration of each sample dissolved in solution was calculated from the area of the peak that coincided with each sample in the resulting analysis data.

[2] = test system: human three-dimensional skin equivalent; assay: Cell survival rate in human three-dimensional skin equivalent (Cell Count Reagent SF); format: cell-based; settings: for Cell Survival Rate (Relative Value): 15 days culture, control (PBS) = 1
Procedure: (§1) The effect of inhibiting melanin production in human three-dimensional skin was examined. Human three-dimensional skin equivalent manufactured by MatTek Corp. was purchased and pre-cultured for 1 hour with the dedicated culture medium, EPI-100LLMM, available from the same manufacturer.
(§2) Following pre-culturing, orotic acid-glutamic acid dissolved in phosphate-buffered saline (PBS) was added to the skin surface at a final concentration of 0.2% (w/v), 0.5% (w/v) or 1.0% (w/v), or orotic acid was added to the skin surface at a final concentration of 0.5% (w/v), followed by culturing for 15 days. The cell survival rates of the human three-dimensional skin equivalent following addition of orotic acid or orotic acid-glutamic acid were measured using the Cell Count Reagent SF manufactured by Nacalai-Tesque, Inc. After culturing, the skin was transferred to medium containing 1% Cell Count Reagent SF and after culturing for 3 hours, absorbance was measured at […]. Cell survival rates were calculated as the measured value based on a value of 1 for the control.

[3] = test system: aged fibroblasts (NB1RGB cells); assay: Collagen production in aged human fibroblasts (human collagen type I ELISA); format: cell-based; settings: 100 μM, 24 hours, culture supernatant; control = 1.00
Procedure: Aged fibroblasts were prepared. Normal human fibroblasts in the form of NB1RGB cells (purchased from the Bioresource Center of Riken Japan) were cultured to confluence in a culture flask, and after culturing for 1 hour in Dulbecco's Modified Eagle Medium (DMEM) manufactured by Sigma Corp. containing 600 μM aqueous hydrogen peroxide and 10% (w/v) fetal calf serum, the cells were washed with PBS and cultured for 24 hours after changing the medium to DMEM containing 10% (w/v) fetal calf serum. This procedure was repeated three times to obtain aged fibroblasts.
The resulting aged fibroblasts were seeded into a plastic Petri dish at a seeding density of about 10,000 cells/cm^2 and then cultured for 24 hours in Dulbecco's Modified Eagle Medium (DMEM) manufactured by Sigma Corp. containing 10% (w/v) fetal calf serum. Subsequently, orotic acid or an orotic acid derivative dissolved in purified water (Table 4) was added to the medium at a final concentration of 100 μmol/L followed by additionally culturing for 24 hours. The medium to which orotic acid or orotic acid derivative had not been added was used as a control.
The culture supernatant was recovered after culturing and collagen production was measured using a human collagen type I ELISA kit manufactured by Acel, Inc. 50 μL of culture supernatant of each sample were added to a microplate treated with collagen antibody provided with the kit. After shake culturing for 1 hour at room temperature, the plate was washed three times with the washing solution provided with the kit. 50 μL of horseradish peroxidase-avidin reagent provided with the kit were added thereto followed by shake culturing for 1 hour at room temperature. After again washing three times with the washing solution, 50 μL of the coloring solution provided with the kit were added followed by allowing to stand undisturbed for 15 minutes at room temperature and adding 50 μL aliquots of reaction stopping solution thereto. After mixing by shaking for 1 minute, absorbance was measured at 450 nm.

[4] = test system: Normal human fibroblasts (NB1RGB cells); assay: Elastin production in normal human fibroblasts (elastin assay kit); format: cell-based; settings: 48 hours, control = 1.00
Procedure: Normal human fibroblasts in the form of NB1RGB cells (purchased from the Bioresource Center of Riken Japan) were seeded at a seeding density of about 10,000 cells/cm^2 and cultured for 24 hours in DMEM medium containing 10% (w/v) fetal calf serum. An orotic acid derivative according to the present invention dissolved in pure water to a final concentration of 0 μM (control), 0.1 μM, 1 μM, 10 μM or 100 μM or orotic acid dissolved in purified water to a final concentration of 100 μM was added to DMEM medium containing 10% (w/v) fetal calf serum followed by culturing for 48 hours. The cells were subsequently recovered, the elastin was extracted with an elastin assay kit manufactured by Biocolor Ltd., and absorbance of the extract was measured at a wavelength of 513 nm.

[5] = cited from earlier work
[6] = test system: human three-dimensional skin equivalent; assay: Melanin production inhibition in human three-dimensional skin equivalent; format: cell-based; settings: for Melanin Production Rate (relative value): 15 days culture, per cell, control (PBS) = 1
Procedure: as §1, §2
After measuring cell survival rates in Experimental Example 2, the skin was thoroughly rinsed with PBS followed by sampling the skin and recovering in a 1.5 mL microtube. 150 μL of a dissolving solution containing sodium dodecyl sulfate (1% (w/v)), 0.05 mM ethylenediaminetetraacetate and 10 mM Tris-HCl (pH 6.8) were added thereto. After stirring, 3 μL of 5 mg/mL protease K were added followed by dissolving for 6 hours at 45° C., adding 25 μL of 500 mM […] and 5 μL of 30% aqueous hydrogen peroxide and further treating for 30 minutes at 80° C. After allowing the sample to cool to room temperature, 20 μL of a 2:1 solution of chloroform and methanol were added to the sample followed by centrifuging for 10 minutes at the highest rotating speed of the centrifuge. 80 μL aliquots of the sample supernatant were recovered onto microplates followed by measurement of absorbance at 405 nm. Melanin production rate was determined by calculating the extinction coefficient of each sample based on a value of 1 for the control and dividing that value by the cell survival rate determined in Example 2 to calculate the melanin production rate per cell.

physchem = settings: 22 °C, thermodynamic from solid
Procedure: as §3, §4, §5, §6

[7] = 22 °C, pH 2.3, water, thermodynamic from solid
[8] = 22 °C, pH 4, aqueous buffer, thermodynamic from solid

SMILES: O=C(O)c1cc(=O)[nH]c(=O)[nH]1 [Orotic acid, reference compound]
Saturated concentration ([1]; pH 2.3, room temperature (22° C.±2° C.)): 0.08 % (w/v)
Saturated concentration ([1]; pH 4.6, room temperature (22° C.±2° C.)): 0.27 % (w/v)
Saturated concentration ([1]; pH 4.8, room temperature (22° C.±2° C.)): 0.26 % (w/v)
Saturated concentration ([1]; pH 5.8, room temperature (22° C.±2° C.)): 0.19 % (w/v)
Saturated concentration ([1]; pH 7.1, room temperature (22° C.±2° C.)): 0.16 % (w/v)
Cell Survival Rate (Relative Value) ([2]; 0.5% (w/v) on skin surface): 1.1
Collagen Production (relative value) [3]: 1.14
Elastin Production (relative value) ([4]; 100 μM): 1.12
Solubility in alcohol ([5]; alcohol such as ethanol): practically insoluble
Solubility in water ([5]; water): extremely insoluble
Melanin Production Rate (relative value) ([6]; 0.5% (w/v)): 0.70
Effect of inhibiting melanin production, statement in words ([6]; human three-dimensional skin equivalent): superior effect of inhibiting melanin production

SMILES: O=C(N[C@@H](Cc1c[nH]cn1)C(=O)O)c1cc(=O)[nH]c(=O)[nH]1 [Orotic acid-His]
solubility thermodynamic at 15 h (physchem; pH 4.9, aqueous buffer): 2.2 mg/mL (≈ 7.5 mM)
solubility thermodynamic at 15 h (physchem; pH 7.2, aqueous buffer): 12.5 mg/mL (≈ 42.6 mM)
Collagen Production (relative value) [3]: 1.23

More lines, main results first:

solubility thermodynamic at 15 h [1, 7]: 9.5 mg/mL (≈ 35 mM)
solubility thermodynamic at 15 h [1, 8]: 98.2 mg/mL (≈ 362 mM)
solubility at 15 h ([1]; 22 °C, pH 4.2, aqueous buffer, thermodynamic from solid): > 111 mg/mL
SMILES: O=C(O)C[C@H](NC(=O)c1cc(=O)[nH]c(=O)[nH]1)C(=O)O [Orotic acid-Asp]

solubility thermodynamic at 15 h [1, 7]: 13 mg/mL (≈ 45.6 mM)
solubility thermodynamic at 15 h ([1]; 22 °C, pH 5.2, aqueous buffer, thermodynamic from solid): 54.3 mg/mL (≈ 190 mM)
SMILES: O=C(O)CC[C@H](NC(=O)c1cc(=O)[nH]c(=O)[nH]1)C(=O)O [Orotic acid-Glu]
Cell Survival Rate (Relative Value) ([2]; 0.2% (w/v) on skin surface): 1.4
Cell Survival Rate (Relative Value) ([2]; 0.5% (w/v) on skin surface): 1.2
Cell Survival Rate (Relative Value) ([2]; 1% (w/v) on skin surface): 0.9
Cell survival rate, statement in words ([2]; at the test concentrations 0.2%, 0.5%, 1.0% (w/v)): no decreases in cell survival rates observed
Collagen Production (relative value) [3]: 1.53
Elastin Production (relative value) ([4]; 0.1 μM): 1.20
Elastin Production (relative value) ([4]; 1 μM): 1.35
Elastin Production (relative value) ([4]; 10 μM): 1.24
Elastin Production (relative value) ([4]; 100 μM): 1.24
Melanin Production Rate (relative value) ([6]; 0.2% (w/v)): 0.61
Melanin Production Rate (relative value) ([6]; 0.5% (w/v)): 0.71
Melanin Production Rate (relative value) ([6]; 1% (w/v)): 0.50

solubility thermodynamic at 15 h ([1]; 22 °C, pH 2.8, aqueous buffer, thermodynamic from solid): 1.1 mg/mL (≈ 5.16 mM)
solubility thermodynamic at 15 h ([1]; 22 °C, pH 3.6, aqueous buffer, thermodynamic from solid): 3.2 mg/mL (≈ 15 mM)
solubility thermodynamic at 15 h [1, 8]: 5.5 mg/mL (≈ 25.8 mM)
solubility thermodynamic at 15 h ([1]; 22 °C, pH 4.5, aqueous buffer, thermodynamic from solid): 16.6 mg/mL (≈ 77.9 mM)
solubility thermodynamic at 15 h ([1]; 22 °C, pH 5.1, aqueous buffer, thermodynamic from solid): 38.3 mg/mL (≈ 180 mM)
solubility thermodynamic at 15 h ([1]; 22 °C, pH 6.1, aqueous buffer, thermodynamic from solid): 66 mg/mL (≈ 310 mM)
SMILES: O=C(O)CNC(=O)c1cc(=O)[nH]c(=O)[nH]1 [Orotic acid-Gly]
Collagen Production (relative value) [3]: 1.23
